Experimental data from the NIST ThermoML archive (doi:10.1016/j.jct.2014.11.007).
± gives the expanded uncertainty stated by the source.

Legend:
[1] = mn = molality of the nth substance listed, in mol/kg; conditions: 100 kPa, Liquid; for speed of sound: Frequency=3 MHz, Sing-around technique in a fixed-path interferometer; for mass density: Vibrating tube method
[2] = 100 kPa, Liquid, Vibrating tube method

Row | SMILES | speed of sound ([1]; 293.15 K, m1 = 0.01) | speed of sound ([1]; 293.15 K, m1 = 0.03) | speed of sound ([1]; 293.15 K, m1 = 0.05) | mass density ([1]; 293.15 K, m1 = 0.03) | mass density ([1]; 293.15 K, m1 = 0.05) | speed of sound ([1]; 298.15 K, m1 = 0.01) | speed of sound ([1]; 298.15 K, m1 = 0.03) | speed of sound ([1]; 298.15 K, m1 = 0.05) | mass density ([1]; 298.15 K, m1 = 0.01) | mass density ([1]; 298.15 K, m1 = 0.03) | mass density ([1]; 298.15 K, m1 = 0.05) | speed of sound ([1]; 303.15 K, m1 = 0.01) | speed of sound ([1]; 303.15 K, m1 = 0.03) | speed of sound ([1]; 303.15 K, m1 = 0.05) | mass density ([1]; 303.15 K, m1 = 0.03) | mass density ([1]; 303.15 K, m1 = 0.05) | speed of sound ([1]; 308.15 K, m1 = 0.01) | speed of sound ([1]; 308.15 K, m1 = 0.03) | speed of sound ([1]; 308.15 K, m1 = 0.05) | mass density ([1]; 308.15 K, m1 = 0.03) | also measured
1 | NCC(=O)O [2-aminoacetic acid] + O | 1483.7 ± 1.5 m/s | 1484.5 ± 1.5 m/s | 1485.7 ± 1.5 m/s | 999.313 ± 0.2 kg/m3 | 999.93 ± 0.2 kg/m3 | 1497.8 ± 1.5 m/s | 1498.5 ± 1.5 m/s | 1499.6 ± 1.5 m/s | 997.478 ± 0.2 kg/m3 | 998.145 ± 0.2 kg/m3 | 998.761 ± 0.2 kg/m3 | 1510.2 ± 1.5 m/s | 1510.9 ± 1.5 m/s | 1511.9 ± 1.5 m/s | 996.744 ± 0.2 kg/m3 | 997.353 ± 0.2 kg/m3 | 1520.8 ± 1.5 m/s | 1521.5 ± 1.5 m/s | 1522.5 ± 1.5 m/s | 995.118 ± 0.2 kg/m3 | speed of sound ([1]; 313.15 K, m1 = 0.01): 1529.8 ± 1.5 m/s; speed of sound ([1]; 313.15 K, m1 = 0.03): 1530.5 ± 1.5 m/s; speed of sound ([1]; 313.15 K, m1 = 0.05): 1531.5 ± 1.5 m/s; mass density ([1]; 313.15 K, m1 = 0.03): 993.306 ± 0.2 kg/m3; mass density ([1]; 313.15 K, m1 = 0.05): 993.898 ± 0.2 kg/m3
2 | O=C(O)[C@@H]1CCCN1 [L-proline] + O | 1483.8 ± 1.6 m/s | 1485.8 ± 1.6 m/s | 1487.4 ± 1.6 m/s | 999.275 ± 0.26 kg/m3 | 999.919 ± 0.26 kg/m3 | 1497.8 ± 1.6 m/s | 1499.8 ± 1.6 m/s | 1501 ± 1.6 m/s | 997.474 ± 0.26 kg/m3 | 998.109 ± 0.26 kg/m3 | 998.747 ± 0.26 kg/m3 | 1510.1 ± 1.6 m/s | 1511.8 ± 1.6 m/s | 1512.9 ± 1.6 m/s | 996.709 ± 0.26 kg/m3 | 997.338 ± 0.26 kg/m3 | 1520.7 ± 1.6 m/s | 1522.4 ± 1.6 m/s | 1523.5 ± 1.6 m/s | 995.083 ± 0.26 kg/m3 | mass density ([1]; 293.15 K, m1 = 0.01): 998.631 ± 0.26 kg/m3; mass density ([1]; 303.15 K, m1 = 0.01): 996.082 ± 0.26 kg/m3; mass density ([1]; 308.15 K, m1 = 0.01): 994.462 ± 0.26 kg/m3; mass density ([1]; 308.15 K, m1 = 0.05): 995.708 ± 0.26 kg/m3; speed of sound ([1]; 313.15 K, m1 = 0.01): 1529.8 ± 1.6 m/s; speed of sound ([1]; 313.15 K, m1 = 0.03): 1531.4 ± 1.6 m/s; speed of sound ([1]; 313.15 K, m1 = 0.05): 1532.3 ± 1.6 m/s; mass density ([1]; 313.15 K, m1 = 0.01): 992.639 ± 0.26 kg/m3; mass density ([1]; 313.15 K, m1 = 0.03): 993.259 ± 0.26 kg/m3; mass density ([1]; 313.15 K, m1 = 0.05): 993.88 ± 0.26 kg/m3
3 | O [water] |  |  |  |  |  |  |  |  |  |  |  |  |  |  |  |  |  |  |  |  | mass density ([2]; 293.15 K): 998.272 ± 0.2 kg/m3; mass density ([2]; 308.15 K): 994.108 ± 0.2 kg/m3; mass density ([2]; 313.15 K): 992.29 ± 0.2 kg/m3
